≈ marks a conversion by molar mass, not a printed value. Like-named read-outs stand apart in the source and are kept apart here.
Assays:
MV411 cells [1] = assay: MTS cytotoxicity assay against MV411 cells; format: cell-based
Protocol: (§1) The obtained compounds were tested in biological experiments to measure their potency in inhibiting the growth of AML cells and in their degradation of CDK9. These measurements are reported as half-maximum growth inhibitory and half-maximum degradation concentrations, IC50s and DC50s, respectively. Maximum percent degradation (Dmax) values were also obtained during the CDK9 degradation assessments. The common MTS assay was used to acquire the IC50 values, while the DC50 values were obtained using an automated western blot experiment. These values are presented in Table 2, along with pIC50 (log(nM IC50)) to more accurately reflect the differences/lack thereof in in vitro cytotoxicity. The notation “N:N*” represents the number of linker atoms on each side of the rigid triazole ring for a given degrader. Predicted log D values, calculated using the ChemAxon […], are also provided for each degrader. To characterize the physicochemical properties of the new degrader series, two additional assays were performed: a kinetic aqueous solubility assay and the chromatographic log D experiment described earlier. Aqueous solubility is shown in μM while experimentally determined log D is shown as log k′80. Details regarding the execution of each experiment are provided below.

CDK9 [2] = molecular target: T1, CDK9 (Homo sapiens, UniProt P50750+Q96SW2); assay: CDK9 degradation, automated western blot, triazole-containing AT7519 degraders (MV411); format: cell-based; conditions: for DC50: CDK9 degradation, MV411 cells; for Dmax: MV4-11
T1 construct: endogenous in cells
T1 sequence (P50750 whole entry): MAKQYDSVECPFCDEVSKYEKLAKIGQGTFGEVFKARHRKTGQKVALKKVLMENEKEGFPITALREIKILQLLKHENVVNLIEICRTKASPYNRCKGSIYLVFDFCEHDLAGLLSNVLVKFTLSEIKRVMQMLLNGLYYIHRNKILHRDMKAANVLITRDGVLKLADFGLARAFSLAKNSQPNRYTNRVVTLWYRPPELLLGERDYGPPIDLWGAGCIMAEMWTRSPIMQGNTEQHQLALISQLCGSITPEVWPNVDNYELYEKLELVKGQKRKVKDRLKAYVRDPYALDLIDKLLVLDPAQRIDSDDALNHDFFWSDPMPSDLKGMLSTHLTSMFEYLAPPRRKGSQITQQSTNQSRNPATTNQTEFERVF
T1 sequence (O60563 whole entry partner): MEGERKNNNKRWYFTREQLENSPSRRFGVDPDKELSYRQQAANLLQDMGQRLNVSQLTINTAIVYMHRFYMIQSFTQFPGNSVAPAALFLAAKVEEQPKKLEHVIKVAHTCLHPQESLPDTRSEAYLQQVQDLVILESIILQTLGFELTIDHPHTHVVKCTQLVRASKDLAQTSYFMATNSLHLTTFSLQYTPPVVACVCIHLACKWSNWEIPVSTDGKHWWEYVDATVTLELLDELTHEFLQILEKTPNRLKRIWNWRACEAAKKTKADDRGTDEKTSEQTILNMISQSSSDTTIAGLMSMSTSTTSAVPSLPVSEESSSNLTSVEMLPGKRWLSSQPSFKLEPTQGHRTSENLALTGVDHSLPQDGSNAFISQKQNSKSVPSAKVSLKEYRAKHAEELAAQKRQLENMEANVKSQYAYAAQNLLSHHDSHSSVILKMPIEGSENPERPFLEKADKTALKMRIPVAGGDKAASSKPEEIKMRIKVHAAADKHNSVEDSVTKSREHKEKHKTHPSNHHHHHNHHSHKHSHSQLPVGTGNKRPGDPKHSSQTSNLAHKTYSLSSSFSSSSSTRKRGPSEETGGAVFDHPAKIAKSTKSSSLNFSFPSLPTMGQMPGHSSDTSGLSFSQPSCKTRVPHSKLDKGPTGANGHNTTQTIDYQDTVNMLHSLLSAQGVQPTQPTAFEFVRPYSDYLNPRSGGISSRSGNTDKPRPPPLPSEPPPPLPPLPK
T1 sequence (Q96SW2 whole entry): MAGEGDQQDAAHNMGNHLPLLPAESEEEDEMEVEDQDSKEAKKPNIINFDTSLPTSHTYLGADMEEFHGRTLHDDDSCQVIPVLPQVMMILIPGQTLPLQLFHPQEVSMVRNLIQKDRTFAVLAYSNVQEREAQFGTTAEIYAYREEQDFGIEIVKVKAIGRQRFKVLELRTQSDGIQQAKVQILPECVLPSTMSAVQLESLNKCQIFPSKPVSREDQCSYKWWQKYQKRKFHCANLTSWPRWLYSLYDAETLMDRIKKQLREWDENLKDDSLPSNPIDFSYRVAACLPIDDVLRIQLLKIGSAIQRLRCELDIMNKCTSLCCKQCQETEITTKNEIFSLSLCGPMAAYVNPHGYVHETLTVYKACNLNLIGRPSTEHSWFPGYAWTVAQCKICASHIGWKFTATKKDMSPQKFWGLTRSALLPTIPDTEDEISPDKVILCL
T1 sequence (Q16531 whole entry partner): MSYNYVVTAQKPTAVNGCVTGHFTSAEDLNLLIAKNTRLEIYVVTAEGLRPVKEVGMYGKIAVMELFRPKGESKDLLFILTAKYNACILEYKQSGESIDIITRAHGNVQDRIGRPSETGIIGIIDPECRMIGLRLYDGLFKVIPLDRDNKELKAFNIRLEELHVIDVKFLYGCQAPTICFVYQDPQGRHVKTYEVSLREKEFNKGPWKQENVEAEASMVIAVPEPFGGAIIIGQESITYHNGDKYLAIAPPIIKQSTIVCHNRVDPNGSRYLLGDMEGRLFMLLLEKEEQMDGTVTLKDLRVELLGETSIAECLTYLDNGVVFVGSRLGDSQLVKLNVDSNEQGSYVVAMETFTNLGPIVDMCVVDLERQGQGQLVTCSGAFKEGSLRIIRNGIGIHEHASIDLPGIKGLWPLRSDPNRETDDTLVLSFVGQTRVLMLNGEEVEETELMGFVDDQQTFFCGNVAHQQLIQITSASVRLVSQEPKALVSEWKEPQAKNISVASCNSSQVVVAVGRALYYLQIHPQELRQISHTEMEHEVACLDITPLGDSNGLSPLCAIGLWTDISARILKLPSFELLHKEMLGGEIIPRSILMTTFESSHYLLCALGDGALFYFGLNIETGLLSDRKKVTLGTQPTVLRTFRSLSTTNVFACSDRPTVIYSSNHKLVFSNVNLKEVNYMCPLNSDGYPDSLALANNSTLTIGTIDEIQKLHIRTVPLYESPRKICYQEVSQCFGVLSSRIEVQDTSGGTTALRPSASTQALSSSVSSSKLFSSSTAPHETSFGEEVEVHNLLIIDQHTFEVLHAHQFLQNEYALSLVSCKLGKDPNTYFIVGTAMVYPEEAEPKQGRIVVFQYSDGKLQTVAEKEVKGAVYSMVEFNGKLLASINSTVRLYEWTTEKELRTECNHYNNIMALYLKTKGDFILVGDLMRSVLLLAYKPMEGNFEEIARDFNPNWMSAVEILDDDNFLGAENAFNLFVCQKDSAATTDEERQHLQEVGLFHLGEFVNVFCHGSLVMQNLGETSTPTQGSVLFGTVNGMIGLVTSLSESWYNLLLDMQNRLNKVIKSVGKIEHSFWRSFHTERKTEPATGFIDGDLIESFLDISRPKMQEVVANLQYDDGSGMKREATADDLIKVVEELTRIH
Protocol: as §1

[3] = Chromatographic log D determination (log k′80); format: physicochemical; conditions: for logk′80: chromatographic log D, PLRP-S column, pH 7.72
Method in brief: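 Samples were diluted from DMSO stock to 122 μM in acetonitrile and run on a PLRP-S column in 20:80 aqueous ammonium acetate/acetonitrile, pH 7.72, at 1 mL/min with UV detection at 337 nm. log k′80 used a fixed 0.3 min dead time derived from a five-compound standard set. Runs were done in triplicate.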

MV411 cells [4] = assay: Cellular potency in human serum versus fetal bovine serum, MV411; format: cell-based
Source text: FIGS. 3A-3C. In vitro cellular potency (against MV411 cells) in human serum (HS) versus fetal bovine serum (FBS) for compounds 4.7b (FIG. 3A) 4.9c (FIG. 3B), and 4,8a (FIG. 3C).
This contrasts with 4.8a, which loses its potency by almost 20-fold in human serum (FIG. 3C).

CDK9 [5] = assay: In vivo CDK9 degradation in mice; conditions: preliminary study, AML-xenografted mice
Protocol: Both degraders were able to degrade CDK9 at low nanomolar concentrations. […] Moreover, dissolution of the test compounds in the 10 mM phosphate buffered saline (PBS) media was very difficult. Solvents, such as dimethylsulfoxide (DMSO), polyethylene glycol and Tween 80©, had to be added in generous quantities to the PBS vehicle to facilitate solubility of the test compounds and allow for the preliminary in vivo assessment that led to the conclusion of inactivity in mice. Significant toxicity, in the form of death and inflammation at the injection site, was also observed due to the inclusion of these additives in the PBS vehicle.

Kinetic solubility assay = conditions: kinetic solubility, PBS pH 7.4; for solubility at 1.5 h: phosphate buffered saline, pH 7.4, aqueous buffer, kinetic from dmso stock, Solubility (μM)
Protocol: (§2) Kinetic Solubility Assay. Kinetic solubility (KS) was measured according to Millipore protocol PC2445 EN00. Test compounds were weighed and diluted with DMSO to 10 mM. From the stock solutions as well as blank (100% DMSO) was taken 17.5 μL and diluted to 500 μM with 332.5 μL of 100 mM phosphate Buffered Saline (PPBS) at pH 7.4 in a 96-well quartz plate. From the 500 μM solutions was taken 150 μL and dispensed into a 96-well Millipore filter plate (Product number: MSSLBPC10). In the quartz plate, serial dilutions were performed down to 0.5 μM using the 100 mM PBS solution, leaving 100 μL of each test sample at 11 different concentrations, representing standards. These steps were performed in triplicate, at minimum, for each test compound. Both plates were shaken on an orbital shaker at 150 rpm for 1.5 hours. The contents of the filter plate were filtered and 100 μL of the filtrate from each well was dispensed into the quartz plate containing standards. The quartz plate was then analyzed using a UV plate reader where absorbance was measured at the relevant wavelength for each compound. After blank subtraction, for each test sample, solubility was determined based on the optical density of filtered samples and the equations derived from the corresponding linear standard curve.

AML cells = assay: Drug washout experiment (cytotoxicity); format: cell-based; conditions: 6 h drugging, 48 h total
Protocol: To better evaluate the catalytic mechanism of action of this degrader series, a drug washout (WO) experiment was performed. This experiment involved the drugging of cells for six hours after which the cell media was replaced with a drug-free batch.

[6] = pH 7.4
Protocol: as §2

[7] = Homo sapiens, MV4-11, defined as log(nM IC50), MV411, read-out: pIC50 (converted)
[8] = Homo sapiens, MV4-11, growth inhibition, MV411 cells, MTS, read-out: IC50
[9] = maximum percent CDK9 degradation

| SMILES | DC50 (CDK9 [2]) | Dmax (CDK9 [2]; [9]) | logk′80 [3] | Solubility (Kinetic solubility assay) | solubility at 1.5 h (Kinetic solubility assay) | minimum difference in log k′80 to constitutional isomers [3] | Dmax (%) (CDK9 [2]; [9]) | Solubility [6] | IC50 (MV411 cells [1]; [7]) | IC50 (MV411 cells [1]; [8]) | improvement in cytotoxicity in human serum versus FBS (MV411 cells [4]) | in vivo CDK9 degradation (CDK9 [5]) | improvement in cytotoxicity over constitutional isomers (MV411 cells [1]; within isomer set) | loss of potency in human serum versus FBS (MV411 cells [4]) | retention of potency after drug washout (AML cells) | pIC50 (MV411 cells [1]; defined as log(nM IC50), MV411) | IC50 (MV411 cells [1]; growth inhibition, MV411 cells, MTS, read-out: IC50) | improvement in cytotoxicity over 4.3 (MV411 cells [1]; 4.10 versus 4.3) |
| --- | --- | --- | --- | --- | --- | --- | --- | --- | --- | --- | --- | --- | --- | --- | --- | --- | --- | --- |
| O=C1CCC(N2C(=O)c3cccc(OCCCn4cc(CCCCN5CCC(NC(=O)c6n[nH]cc6NC(=O)c6c(Cl)cccc6Cl)CC5)nn4)c3C2=O)C(=O)N1 (stereo not drawn) [Compound 4.7b, 4-(2,6-dichlorobenzamido)-N-(1-(4-(1-(3-((2-(2,6-dioxopiperidin-3-yl)-1,3-dioxoisoindolin-4-yl)oxy)propyl)-1H-1,2,3-triazol-4-yl)butyl)piperidin-4-yl)-1H-pyrazole-3-carboxamide] | 0.0692 µM | 79.1% | 0.084 | 40.9 µM (≈ 33.5 µg/mL) | 40 µM (≈ 32.8 µg/mL) |  |  |  | 200 nM | 190 nM | ~3 fold | not observed |  |  |  |  |  |  |
| O=C1CCC(N2C(=O)c3cccc(OCCCCCCn4cc(CCCCCCCN5CCC(NC(=O)c6n[nH]cc6NC(=O)c6c(Cl)cccc6Cl)CC5)nn4)c3C2=O)C(=O)N1 (stereo not drawn) [Compound 4.9b] | 0.0614 µM |  | 0.176 |  |  |  | 78.0% | 4.70 µM (≈ 4.25 µg/mL) |  |  |  |  |  |  | retain their potency | 1.8 | 63.3 nM |  |
| O=C1CCC(N2C(=O)c3cccc(OCCCCCCn4cc(CCCCCN5CCC(NC(=O)c6n[nH]cc6NC(=O)c6c(Cl)cccc6Cl)CC5)nn4)c3C2=O)C(=O)N1 (stereo not drawn) [Compound 4.10, 4-(2,6-dichlorobenzamido)-N-(1-(5-(1-(6-((2-(2,6-dioxopiperidin-3-yl)-1,3-dioxoisoindolin-4-yl)oxy)hexyl)-1H-1,2,3-triazol-4-yl)pentyl)piperidin-4-yl)-1H-pyrazole-3-carboxamide] | 0.0999 µM | 70.1% | 0.140 |  | 5.46 µM (≈ 4.78 µg/mL) |  |  |  | 50.1 nM | 46.6 nM |  |  |  |  | retain their potency |  |  | over 5 fold |

Now from value to molecule, other results behind:

| DC50 (CDK9 [2]) | Dmax (CDK9 [2]; [9]) | logk′80 [3] | Solubility (Kinetic solubility assay) | solubility at 1.5 h (Kinetic solubility assay) | minimum difference in log k′80 to constitutional isomers [3] | Dmax (%) (CDK9 [2]; [9]) | Solubility [6] | SMILES | IC50 (MV411 cells [1]; [7]) | IC50 (MV411 cells [1]; [8]) | improvement in cytotoxicity in human serum versus FBS (MV411 cells [4]) | in vivo CDK9 degradation (CDK9 [5]) | improvement in cytotoxicity over constitutional isomers (MV411 cells [1]; within isomer set) | loss of potency in human serum versus FBS (MV411 cells [4]) | retention of potency after drug washout (AML cells) | pIC50 (MV411 cells [1]; defined as log(nM IC50), MV411) | IC50 (MV411 cells [1]; growth inhibition, MV411 cells, MTS, read-out: IC50) | improvement in cytotoxicity over 4.3 (MV411 cells [1]; 4.10 versus 4.3) |
| --- | --- | --- | --- | --- | --- | --- | --- | --- | --- | --- | --- | --- | --- | --- | --- | --- | --- | --- |
| 0.0448 µM | 88.6% | 0.197 |  | 3.42 µM (≈ 3.09 µg/mL) | 0.013 |  |  | O=C1CCC(N2C(=O)c3cccc(OCCCn4cc(CCCCCCCCCCN5CCC(NC(=O)c6n[nH]cc6NC(=O)c6c(Cl)cccc6Cl)CC5)nn4)c3C2=O)C(=O)N1 (stereo not drawn) [Compound 4.9c, 4-(2,6-dichlorobenzamido)-N-(1-(10-(1-(3-((2-(2,6-dioxopiperidin-3-yl)-1,3-dioxoisoindolin-4-yl)oxy)propyl)-1H-1,2,3-triazol-4-yl)decyl)piperidin-4-yl)-1H-pyrazole-3-carboxamide] | 7.94 nM | 8.8 nM |  |  | ~10 fold | 3 fold | retain their potency |  |  |  |
| 0.0601 µM | 88.3% | 0.146 |  | 5.65 µM (≈ 4.79 µg/mL) | 0.030 |  |  | O=C1CCC(N2C(=O)c3cccc(OCCCCCCCn4cc(CCN5CCC(NC(=O)c6n[nH]cc6NC(=O)c6c(Cl)cccc6Cl)CC5)nn4)c3C2=O)C(=O)N1 (stereo not drawn) [Compound 4.8a, 4-(2,6-dichlorobenzamido)-N-(1-(2-(1-(7-((2-(2,6-dioxopiperidin-3-yl)-1,3-dioxoisoindolin-4-yl)oxy)heptyl)-1H-1,2,3-triazol-4-yl)ethyl)piperidin-4-yl)-1H-pyrazole-3-carboxamide] | 50.1 nM | 46.9 nM |  |  |  | ~20 fold |  |  |  |  |

From patent US20250236607A1, “CYCLIN-DEPENDENT KINASE 9 (CDK9) DEGRADERS AND METHODS OF USING THEREOF” (OHIO STATE INNOVATION FOUNDATION, priority 2022, published 2025)
